# According to patent US9751886B2, “4-amino-6-phenyl-6,7-dihydro[1,2,3]triazolo[1,5-A]pyrazine derivatives as inhibitors of beta-secretase (BACE)” (Janssen Pharmaceutica NV, priority 2013, dated 2017):
# Tested on: brain levels of soluble Aβ42, Aβ40
# Assay: In vivo Aβ lowering in non-transgenic rodents (MSD electrochemiluminescence)
# Parameters: species or system mouse
# Details: dose 10, s.c., untreated control = 100
# Excerpt: To determine whether acute administration of an Aβ lowering agent would reduce Aβ levels in vivo, non-transgenic rodents, e.g. mice or rats were used. Animals treated with the Aβ lowering agent were examined and compared to those untreated or treated with vehicle and brain levels of soluble Aβ42, Aβ40, Aβ38, and Aβ37 were quantitated by Meso Scale Discovery's (MSD) electrochemiluminescence detection technology. Treatment periods varied from hours (h) to days and were adjusted based on the results of the Aβ lowering once a time course of onset of effect could be established.
# A typical protocol for measuring Aβ lowering in vivo is shown but it is only one of many variations that could be used to optimize the levels of detectable A. For example, Aβ lowering compounds were formulated in 20% of Captisol® (a sulfo-butyl ether of β-cyclodextrin) in water or 20% hydroxypropyl β cyclodextrin. The Aβ lowering agents were administered as a single oral dose or by any acceptable route of administration to overnight fasted animals. […]
# Blood was collected by decapitation and exsanguinations in EDTA-treated collection tubes. Blood was centrifuged at 1900 g for 10 minutes (min) at 4° C. and the plasma recovered and flash frozen for later analysis. The brain was removed from the cranium and hindbrain. The cerebellum was removed and the left and right hemisphere were separated. The left hemisphere was stored at −18° C. for quantitative analysis of test compound levels. The right hemisphere was rinsed with phosphate-buffered saline (PBS) buffer and immediately frozen on dry ice and stored at −80° C. until homogenization for biochemical assays.
# Mouse brains from non-transgenic animals were resuspended in 8 volumes of 0.4% DEA (diethylamine)/50 mM NaCl containing protease inhibitors (Roche-11873580001 or 04693159001) per gram of tissue, e.g. for 0.158 g brain, add 1.264 ml of 0.4% DEA. All samples were homogenized in the FastPrep-24 system (MP Biomedicals) using lysing matrix D (MPBio #6913-100) at 6 m/s for 20 seconds. Homogenates were centrifuged at 20800×g for 5 min and supernatants collected. Supernatants were centrifuged at 221.300×g for 50 min. The resulting high speed supernatants were then transferred to fresh eppendorf tubes. Nine parts of supernatant were neutralized with 1 part 0.5 M Tris-HCl pH 6.8 and used to quantify Aβ.
# To quantify the amount of Aβ42, Aβ40, Aβ38, and Aβ37 in the soluble fraction of the brain homogenates, simultaneous specific detection of Aβ42, Aβ40, Aβ38, and Aβ37 was performed using MSD's electro-chemiluminescence multiplex detection technology. In this assay purified monoclonal antibodies specific for Abeta37 (JRD/Aβ37/3), Abeta38 (J&JPRD/Aβ38/5), Abeta40 (JRF/cAβ40/28), and Abeta42 (JRF/cAβ(342/26) were coated on MSD 4-plex plates. Briefly, the standards (a dilution of synthetic Aβ42, Aβ40, Aβ38, and Aβ37) were prepared in 1.5 ml Eppendorf tube in Ultraculture, with final concentrations ranging from 10000 to 0.3 pg/m. The samples and standards were co-incubated with Sulfo-tag labelled JRF/rAβ/2 antibody to the N-terminus of Aβ as detector antibody. 50 μl of conjugate/sample or conjugate/standards mixtures were then added to the antibody-coated plate. The plate was allowed to incubate overnight at 4° C. in order to allow formation of the antibody-amyloid complex. Following this incubation and subsequent wash steps the assay was finished by adding read buffer according to the manufacturer's instructions (Meso Scale Discovery, Gaitherburg, Md.).
# The SULFO-TAG emits light upon electrochemical stimulation initiated at the electrode. MSD Sector instrument SI6000 was used for signal read-out.
# The results are shown in Table 8 (value for untreated animals as control (Ctrl) was set at 100): […]
smiles,measurement,setting,value
"C[C@@]1(c2cc(NC(=O)c3ccc(F)cn3)ccc2F)Cn2nncc2C(N)=N1 [Compound 1, N-{3-[(6R)-4-amino-6-methyl-6,7-dihydro[1,2,3]triazolo[1,5-a]pyrazin-6-yl]-4-fluorophenyl}-5-fluoropyridine-2-carboxamide]",Aβ40 (% vs Ctrl)_Mean,2 h after administration,47 % vs Ctrl
same,Aβ42 (% vs Ctrl)_Mean,2 h after administration,47 % vs Ctrl
same,Aβ40 (% vs Ctrl)_Mean,4 h after administration,73 % vs Ctrl
same,Aβ42 (% vs Ctrl)_Mean,4 h after administration,55 % vs Ctrl
